{"source": "paper PMC4981696", "about": "“Non-target Site Tolerance Mechanisms Describe Tolerance to Glyphosate in Avena sterilis” (Frontiers in Plant Science, 2016)", "test_in_all_cases": "phosphate release assay (EnzChek phosphate kit)", "conditions_in_all_cases": "partially purified leaf extract; 100 mM MOPS, 1 mM MgCl2, 10% glycerol, 2 mM sodium molybdate, 200 mM NaF; glyphosate 0-1000 μM; range is 95% CI; read-out: I50(μM)(95% CI)^a", "key": {"[1]": {"test_system": "T1, EPSPS (A. sterilis UE accession)", "T1 construct": "homeologous copies not distinguished", "assay_type": "biochemical, Avena sterilis", "source_text": "phosphate release assay (EnzChek phosphate kit) on EPSPS (A. sterilis UE accession)"}, "[2]": {"test_system": "T2, EPSPS (A. sterilis E accession)", "T2 construct": "homeologous copies not distinguished", "assay_type": "biochemical, Avena sterilis", "source_text": "phosphate release assay (EnzChek phosphate kit) on EPSPS (A. sterilis E accession)"}, "[3]": {"target": "T3, EPSPS (L. rigidum S population) (Lolium rigidum, UniProt A0A5B9T5S8)", "T3 sequence (A0A5B9T5S8 61-505)": "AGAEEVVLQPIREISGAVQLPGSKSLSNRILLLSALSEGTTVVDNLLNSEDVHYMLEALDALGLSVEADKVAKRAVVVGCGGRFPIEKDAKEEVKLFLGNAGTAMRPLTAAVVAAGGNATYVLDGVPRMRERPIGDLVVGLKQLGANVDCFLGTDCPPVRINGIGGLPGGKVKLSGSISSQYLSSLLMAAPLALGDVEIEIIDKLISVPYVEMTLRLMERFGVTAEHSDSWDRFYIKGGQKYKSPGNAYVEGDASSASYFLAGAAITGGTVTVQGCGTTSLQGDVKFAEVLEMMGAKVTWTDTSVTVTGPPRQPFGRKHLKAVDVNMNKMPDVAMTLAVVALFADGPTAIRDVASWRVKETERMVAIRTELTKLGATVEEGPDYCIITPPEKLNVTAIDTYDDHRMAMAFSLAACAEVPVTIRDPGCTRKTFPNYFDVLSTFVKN", "assay_type": "biochemical", "source_text": "phosphate release assay (EnzChek phosphate kit) on EPSPS (L. rigidum S population)"}}, "data": [{"compound": "O=C(O)CNCP(=O)(O)O", "note": "[glyphosate]", "values": [{"measurement": "IC50", "setting": "[1]", "value": 42.4, "unit": "µM"}, {"measurement": "IC50", "setting": "[2]", "value": 53.5, "unit": "µM"}, {"measurement": "IC50", "setting": "[3]", "value": 5.1, "unit": "µM"}]}]}
